Experimental data: patent publication US8501734B2, “Medical intervention in haematological cancers” (Oncotyrol-Center for Personalized Cancer Medicine GmbH …, priority 2008, dated 2013)

Key:
TLR7 pathway = experiment: TLR pathway activation: IRAK1 and IκB degradation by Western blot in OPM2 cells; type: cell-based; details: OPM2 cells, 10, 20 or 40 μg/ml over night
Method: Cells were lysed in lysis-IP-Buffer supplemented with protease inhibitors and sodium orthovanadate. 10 μg of lysate were separated by SDS-PAGE (10% polyacrylamide) and transferred to methanol activated Hypond-P PVDF-membranes (Amersham, Freiburg, Germany) by semi-dry blotting. Membranes were blocked in a 3% bovine serum albumin solution or 5% non fat dry milk solution in phosphate buffered saline (PBS) with 0.1% Tween 20 (PBT). Primary antibodies were applied in blocking solution for 1 h at room temperature or over night at 4° C. Membranes were washed in PBT and incubated with corresponding secondary antibodies in 5% non fat dry milk in PBT for 1 h at room temperature. Cells were washed with PBT, incubated with ECL solution and exposed in a Fluorchem 5500 (Biozym, Oldendorf, Germany).
OPM2 cells were suspended in full medium and cultured in 24-well plates at a cell density of 500.000 cells/ml and well. Cells were left untreated (control) or treated over night with different concentrations of Imiquimod® (10, 20 or 40 μg/ml).
OPM2 cells were cultured in 24-well plates as described above. Imiquimod® (40 μg/ml) was added to cells (except controls) for different time periods (2, 4, 6 and 8 h) and the extent of PARP1 cleavage, IRAK1, IkB-α and IkB-β degradation were determined by Western blot. α-Tubulin was used as a loading control.

[1] = test system: squamous cell carcinoma cells; details: 50 μg/ml, 24 h; cited from earlier work
[2] = test system: multiple myeloma cell lines; experiment: Annexin V/PI apoptosis assay, multiple myeloma cell line panel; type: cell-based; details: 24 h
Method: (§1) After treatment adherent cells were trypsinized (as described before), and resuspended in corresponding full medium. Suspension cells or trypsinized adherent cells, supernatant and washing solution (1×PBS from washing before trypsinization) were pooled and then spun down (300 g for 3 min) washed in 2 ml and resuspended in 1000 of annexin V binding buffer and mixed with 2 μg/ml annexin V-Allophycocyanin (APC) (BD-Pharmingen, San Diego, Calif., USA) and 50 ng/ml of propidium iodide (PI; Sigma Aldrich). At least 10.000 cells were measured per sample using a Becton Dickinson FACSCalibur flow Cytometer (San Jose, Calif., USA). Percentage of Annexin V negative and PI negative cells were depicted in the figures. For the analysis of the pro-apoptotic activity of Imiquimod® in primary MM cells and non-malignant BMMCs, 5×10^5 cells BMMCs cells were treated with or without 40 μg/ml Imiquimod® for the indicated time periods. Cells were then harvested and washed twice with PBS. Detection of apoptotic cells was performed using the annexin V/PI assay according to manufacturers' instruction. Briefly, BMMCs were stained with a mixture of annexin V/FITC (Alexis Coorp., Laeufelfingen, Switzerland), propidium iodide (Sigma), anti-CD38-PE and anti-CD45-PC5 for 15 min at room temperature and immediately analyzed by flow cytometry. The percentages of viable cells (i.e. cells negative for annexin V/FITC and PI) within the MM (CD38^posCD45^low/absent) and non-MM fraction (CD38^neg/CD45^pos) were determined by flow cytometry.
(§2) Adherent cells were grown in 24-well plates to confluence and treated with 40 μg/ml Imiquimod® for 24 h. Cells were then trypsinized, suspended in full medium, stained for AnnexinV/PI and apoptosis was measured as described before. Suspension cells (250.000) were treated with 40 μg/ml Imiquimod® for 24 h, stained for Annexin/PI and apoptosis was measured as described above (Annexin V/Propidium Iodide apoptosis Assay).

[3] = test system: non-tumor cells (CD38negCD45high); experiment: Annexin V/PI apoptosis assay, non-tumor fraction of patient BMMCs; type: cell-based, human; details: CD45high non-tumor cells, 40 μg/ml, 8 h or 24 h
Method: For collection of primary multiple myeloma cells, bone marrow aspirates from iliac crests were collected during routine examinations after obtaining informed patient consent. Bone marrow mononuclear cells (BMMCs) were separated by density centrifugation. Fresh blood samples were diluted 1:1 with RPMI 1640 medium and layered over Biocoll separating solution (1.077 g/ml, Biochrom AG, Berlin; blood/RPMI1640/Biocoll; 1:1:1, v/v/v). Centrifugation was carried out for 20 min at 400 g. […] The percentage of multiple myeloma cells within the BMMCs was determined by flow cytometry. Briefly, 2×10^5 cells were stained for 15 min with fluorochrome-labelled antibodies to CD38 (phycoerythrin, PE) and CD45 (phycoerythrin-cyanin 5, PC5) (both from Beckman Coulter Inc., Fullerton, Calif., USA), washed with PBS and were immediately analyzed using the FC500 flow cytometer and the RXP1.0 software (Beckman Coulter). MM cells were detected by their high expression of CD38 and weak to absent expression of CD45.
After treatment adherent cells were trypsinized (as described before), and resuspended in corresponding full medium. […] At least 10.000 cells were measured per sample using a Becton Dickinson FACSCalibur flow Cytometer (San Jose, Calif., USA). […]

[4] = test system: Raji, Daudi, Ramos, Jurkat, C7H2 cell lines; experiment: Annexin V/PI apoptosis assay, non-multiple myeloma suspension cell lines; type: cell-based; details: 24 h
Method: as §1, §2

OPM2 cells = experiment: Growth of OPM2 cells under multiple low doses (cell counting); type: cell-based
Method: 2×10^5 OPM2 cells in 1 ml of full medium were cultured in 24-well plates in duplicates for 8 days. For the first three days the appropriate amount of Imiquimod® (1, 2, 5, 5, or 10 μg/ml) was added daily. For determination of absolute cell numbers 100 μl of cell suspension were taken on days 1-5 and day 8 and cell number was determined using the CASY Cell Counter Model DT (Schärfe System GmbH, Reutlingen, Germany). On the fourth day cells were spun down (200 g, 2 min) and 600 μl of the remaining 700 μl of supernatant (100 μl were left to keep cell pellet undisturbed) were removed and 600 μl of fresh full medium was added to the cell culture.

[5] = test system: MDA468, CHO, ONK2, MCF7, HeLa, Raji, Daudi, Ramos, C7H2 and Jurkat; adherent cell lines; experiment: Annexin V/PI apoptosis assay, non-MM and adherent cell lines; type: cell-based
Method: as §1, with “For the analysis of the pro-apoptotic activity of Imiquimod® in primary MM cells and non-malignant BMMCs, 5×10^5 cells BMMCs cells were treated with or without 40 μg/ml Imiquimod® for the indicated time periods. Cells were then harvested and washed twice with PBS. Detection of apoptotic cells was performed using the annexin V/PI assay according to manufacturers' instruction.” left out
Adherent cells were grown in 24-well plates to confluence and treated with 40 μg/ml Imiquimod® for 24 h. Cells were then trypsinized, suspended in full medium, stained for AnnexinV/PI and apoptosis was measured as described before. […]

melanoma cells = details: 50 μg/ml, 24 h; cited from earlier work

CC(C)Cn1cnc2c(N)nc3ccccc3c21 [Imiquimod, 1-(2-methylpropyl)-1H-imidazo[4,5-c]quinolin-4-amine]
IRAK1 degradation (TLR7 pathway): degraded in a concentration-dependent manner | IκB-α degradation (TLR7 pathway): degraded in a concentration dependent manner | apoptotic cells [1]: 17.3% | apoptosis induction, single agent ([2]; OPM2, LP-1, RPMI, U266, Imiquimod 20 μg/ml or Akti1/2 5 or 10 μM alone): some apoptosis | sensitivity (apoptosis) ([2]; OPM2, U266, LP1, NCI, 40 μg/ml): sensitive | apoptosis induction [3]: induction of apoptosis | sensitivity (apoptosis) ([4]; Raji and Jurkat, 40 μg/ml): if at all only low sensitivity | apoptosis induction ([4]; Raji, Daudi, Ramos, Jurkat, C7H2, 20 μg/ml): apoptosis to some minor degree | cell growth inhibition (OPM2 cells; 3-times given dose of 10 μg/ml): sufficient to irreversibly inhibit cell growth | cell growth inhibition (OPM2 cells; triple treatment with 5 μg/ml): sufficient to significantly block the growth potential | sensitivity to Imiquimod ([5]; MDA468, CHO, ONK2, MCF7, HeLa, Raji, Daudi, Ramos, C7H2 and Jurkat): no sensitivity | sensitivity (apoptosis) ([5]; set of adherent cell lines, 40 μg/ml, 24 h): no significant or only minimal sensitivity | apoptotic cells (melanoma cells): 15.8%
